Values belong to the compound of their own block, whether it stands above or below them.
Columns and labels:
SK-N-AS cells [1] = assay: ALAMARBLUE assay of plated cells after freeze-thaw of suspended cells; assay type: cell-based, Human; settings: for cell viability after freeze-thawing on decreasing the concentration of PBS: hypotonic conditions, FIG. 11
Description: The cells were plated on a 96-well plate in a density of 2.25×10^5 cells/cm^2 and diluted with medium to the final volume of 200 μL inside the well. The cells were then incubated overnight at 37° C. and 5% CO2 so they attached to the wells. Cells were stained with 10 μL ALAMARBLUE® reagent per 100 μL of medium in the well and incubated for 4 h. Same procedure was applied for a blank, where 200 μL of medium was pipetted into the well. After that, 100 μL of solution above the cells was pipetted into a black non-transparent 96-well plate and fluorescence was measured with SPECTRAMAX® plate reader (excitation λ=550 nm, emission λ=590 nm).
(§1) Formulations were prepared in 50 mL Falcon tubes and subsequently sterile filtered under the bench with 0.22 μm syringe filter and a syringe. Sterile formulations were then stored at 2-8° C. until further use. 0.5 mL of cell suspension in either PBS or medium at a concentration of 20*10^6 cells/mL was mixed with 0.5 mL of pre-warmed sterile formulation. Vials were then stoppered and stored in a −80° C. freezer for minimum overnight.
(§2) Subsequently, the vials were taken from the −80° C. freezer and rapidly thawed in the water bath at 37° C. Immediately after thawing, 0.1 mL of cell suspension was 2× diluted with medium and counted with NucleoCounter to obtain cell viability [%] and concentration inside the vial. Suspension was then plated on a 96-well plate so the cell density was 2.25×10^5 cells/cm^2 (growth area in one well is 0.32 cm^2). Calculation of the volume (V) of cell suspension is according to following equation: […]
Calculated volume was diluted inside of the well with cell growth medium, so that the final volume was 0.2 mL. 96-well plate with samples was incubated overnight in the incubator and ALAMARBLUE® assay was performed the morning after (if not stated differently in the results section).
ALAMARBLUE® on the other hand, contains a reagent called resazurin. This is a non-toxic, blue, weakly fluorescent dye, which can permeate cell membranes. Resazurin undergoes a metabolic reduction inside of the cell to a form called resorufin, which is pink and highly fluorescent. The intensity of fluorescence is proportional to the amount of cells that are able to metabolize resazurin and are thus considered viable.

SK-N-AS cells [2] = assay: DAPI/acridine orange viability (NUCLEOCOUNTER) directly after freeze-thaw; assay type: cell-based, Human; settings: directly after thawing, FIG. 6
Description: 200 μL of cell suspension was pipetted into 1.5 mL Eppendorf tube and diluted with medium. Diluted suspension was then pipetted with VIAL-[…]™ and inserted into the NUCLEOCOUNTER® for measurement.
as §1, §2
Next, we compared two methods for determining viability and noticed a large discrepancy in obtained results (FIG. 5 and FIG. 6). The reason for this is the difference in underlying principles of viability assessment of both methods. As previously, DAPI/acridine orange staining is performed using NUCLEOCOUNTER®, which is an integrated fluorescence microscope with dual fluorescence channels. One is for staining with acridine orange and the other with DAPI dye. They both bind to DNA and label cellular nuclei with high specificity. Acridine orange can permeate the cell membrane and is used for cell detection, while DAPI cannot permeate the membrane and binds only to nuclei of dead cells with disrupted membrane. Thus, the cell viability according to the DAPI/acridine orange method, is mostly based on the integrity of cell membranes. Dyes are fluorescent and therefore visible when using fluorescence filters in microscope, while cell debris and other particles without DNA are not visible. The software then identifies and analyses the individual cells (even within smaller aggregates) and calculates the viability, by comparing the ratio of signal with Acridine Orange and DAPI staining (according to equation below).

[3] = Freeze drying, visual inspection of lyophilization cake; assay type: physicochemical; settings: 1M propylene glycol and 0.1M trehalose formulation; FIG. 21B
Description: Freeze drying was performed with the SP Scientific's LyoStar 3 pilot scale freeze dryer with 0.4 m^2 of shelf surface area. Vials were filled and loaded on a tray under the biosafety bench and then loaded in the freeze dryer. Vials were left on the tray inside the lyophilizer, to avoid any spillage of biomaterial inside the chamber in case of a vial breakage.
Employed conservative lyophilization programs (Table 3 and Table 4) included freezing and primary drying steps. Since it is known from literature, that complete elimination of water and higher temperatures employed during secondary drying negatively impact the cell survival during process, the step was omitted. The product temperature was monitored by including a thermocouple inside the vial, so that its tip touched the bottom of the vial. After unloading of the vials from the lyophilizer, they were visually inspected.

Structure (SMILES): C[S+](C)[O-] [DMSO, Dimethyl Sulfoxide, reference compound]
- cell viability compared to the untreated control (SK-N-AS cells [1]; 5% DMSO, internal data): over 80%

Structure (SMILES): OCCO [ethylene glycol, Ethylene glycol]
- densities of plated cells after thawing, 1M ethylene glycol vs 1M propylene glycol (SK-N-AS cells [1]; 1M, FIG. 8B): not significantly different
- cell density after thawing vs propylene glycol, ANOVA and t-test (SK-N-AS cells [1]; formulation in medium, P<0.05): significantly worse than propylene glycol
- cell viability after freeze-thawing on decreasing the concentration of PBS (SK-N-AS cells [1]): decrease in cell viability

Structure (SMILES): OCC(O)CO [glycerol, Glycerol]
- cell density after freeze-thaw compared with 5% DMSO formulation in medium (SK-N-AS cells [1]; glycerol formulation in medium, FIG. 8A): not significantly worse than 5% DMSO formulation

- appearance of lyophilizate [3]: remained in liquid form
Structure (SMILES): CC(O)CO (centres unmarked) [propylene glycol, Propylene glycol]
- viability after FT of cells (DAPI/acridine testing) (SK-N-AS cells [2]; 0.1M propylene glycol): around 50%
- viability after FT of cells (DAPI/acridine testing) (SK-N-AS cells [2]; 0.2M propylene glycol): around 50%
- viability after FT of cells (DAPI/acridine testing) (SK-N-AS cells [2]; 1M propylene glycol): ~100%
- viability after FT of cells (DAPI/acridine testing) (SK-N-AS cells [2]; 2M propylene glycol): ~100%
- optimisation of propylene glycol concentration, viability by ALAMARBLUE (SK-N-AS cells [1]; 1M concentration, FIG. 7B): most favourable
- relative viability to control (untreated cells) after freeze thawing (SK-N-AS cells [1]; 5% (v/v) in cell medium, FIG. 7A): efficient in protecting the cells compared to other tested excipients
- cell viability of treated cells relative to untreated cells (metabolic assay) (SK-N-AS cells [1]; after FT, compared with DAPI/acridine results, FIG. 5): much lower cell viability
- cell viability after freeze-thawing on decreasing the concentration of PBS (SK-N-AS cells [1]): decrease in cell viability

Reference: US20220338463A1, “METHOD OF PRODUCING LYOPHILIZED CELLS” (LONZA LTD, priority 2019, published 2022)
